In ChEMBL document CHEMBL3045077, “Intravenous pharmacokinetics and oral bioavailability of biochanin A in female rats” (Med Chem Res, 2011):

Columns and labels:
Format in all cases: ADME, organism-based
[1] = Apparent volume of distribution in Rattus norvegicus Sprague-Dawley (rat) at 5 mg/kg, iv; parameters: dose 5 mg/kg, route intravenous; settings: in vivo, read-out: Vd(app)
[2] = Total clearance in Rattus norvegicus Sprague-Dawley (rat) at 5 mg/kg, iv; parameters: dose 5 mg/kg, route intravenous; settings: in vivo
[3] = Apparent elimination half life in Rattus norvegicus Sprague-Dawley (rat) at 5 mg/kg, iv; parameters: dose 5 mg/kg, route intravenous; settings: in vivo, read-out: betat1/2(app) (converted)
[4] = Apparent elimination half life in Rattus norvegicus Sprague-Dawley (rat) at 50 mg/kg, po; parameters: dose 50 mg/kg, route oral; settings: in vivo, read-out: betat1/2(app) (converted)

- Vd [1]: 10.6 L/kg
- clearance [2]: 262 mL/min/kg
- half-life [3]: 1 h
- half-life [4]: 13.7 h
SMILES: COc1ccc(-c2coc3cc(O)cc(O)c3c2=O)cc1 [BIOCHANIN]
